The record followed here is patent US10160831B2, “Astaxanthin based polymer and uses thereof” (SHENKAR COLLEGE OF ENGINEERING AND DESIGN, priority 2014, dated 2018).

Experiment [1] concerns S. aureus and S. epidermidis isolates. Kind of experiment: Semi-quantitative biofilm assay (crystal violet, OD570) after culturing for 24 h. Format: cell-based. The conditions noted are these: 24 h culture, OD570, FIG. 12B, p≤0.005. Here is the method:
3 ml Trypticase Soy Broth was inoculated with a colony from an overnight plate. Pre-cultures were grown at 37° C. with shaking to mid-exponential phase (2-3 h), and then used to inoculate fresh TSB to a starting OD600 of 0.01. 200 μl aliquots of this suspension were then inoculated into wells of one full row of the test plate. The plate was then incubated in a FLUOstar OPTIMA microplate reader at 37° C., and the optical density of each well measured every hour over a 24 h period. After 24 h the suspension in each plate was removed. The plate itself was washed three times with phosphate buffered saline, pH 7.4 (PBS), air dried and stained with 150 μl crystal violet solution. The dye bound to any attached cells was solubilized by addition of 150 μl of 95% ethanol. Optical density was measured as absorbance at 570 nm using a FLUOstar OPTIMA microplate reader and biofilm positive defined as OD570 above 1. All S. aureus and S. epidermidis isolates were tested in triplicate in three independent experiments. Each plate also consisted of negative controls (wells without bacterial inoculation). Data was analyzed using unpaired t-tests or one-way ANOVA, and the level of significance set at p<0.05. The ability of the bacteria to form a biofilm in the presence of the ATX samples was determined after culturing for 24 h using a semi-quantitative biofilm assay.

Experiment [2] relates to S. epidermidis 1457. Kind of experiment: Bacterial growth on coated 96 well plates, optical density over 24 h. Format: cell-based. Particulars: coated wells, 37° C., FIG. 12A. Here is the method: The potential antibacterial properties of polymer based ATX samples were tested against Staphylococcus aureus MRSA252, S. aureus MSSA476 and S. epidermidis 1457. Using solvent casting method [J. Ghosh et al., Polymer, vol. 52, pp. […]], 96 well plates were coated with the following samples—ATX only, ATX+sebacic acid (SA), ATX+Hexadecanoic acid (HA) and ATX+sebacic acid+2% polyethylene glycol (PEG). Each sample coated 3 wells per row and the last row was left blank as a control.
3 ml Trypticase Soy Broth was inoculated with a colony from an overnight plate. Pre-cultures were grown at 37° C. with shaking to mid-exponential phase (2-3 h), and then used to inoculate fresh TSB to a starting OD600 of 0.01. 200 μl aliquots of this suspension were then inoculated into wells of one full row of the test plate. The plate was then incubated in a FLUOstar OPTIMA microplate reader at 37° C., and the optical density of each well measured every hour over a 24 h period. […]
Optical density was measured as absorbance at 570 nm using a FLUOstar OPTIMA microplate reader and biofilm positive defined as OD570 above 1. […] Data was analyzed using unpaired t-tests or one-way ANOVA, and the level of significance set at p<0.05. The ability of the bacteria to form a biofilm in the presence of the ATX samples was determined after culturing for 24 h using a semi-quantitative biofilm assay.

As for `CC1=C(/C=C/C(C)=C/C=C/C(C)=C/C=C/C=C(C)/C=C/C=C(C)/C=C/C2=C(C)C(=O)[C@@H](O)CC2(C)C)C(C)(C)C[C@H](O)C1=O` [ATX, 3,3′-dihydroxy-β,βcarotene-4,4′-dione], the “biofilm formation on coated surface vs control” value in experiment [1] is reported as “inhibited the bacteria from forming biofilm”. The “effect on growth of the bacteria (optical density)” value in experiment [2] was “significant effect on inhibiting the growth”.
